Reference: paper PMC8217813, “Bridging Computational Vaccinology and Vaccine Development Through Systematic Identification, Characterization, and Downselection of Conserved and Variable Circumsporozoite Protein CD4 T Cell Epitopes From Diverse Plasmodium falciparum Strains” (Frontiers in Immunology, 2021)
Peptide text beside a SMILES is read from it.

What follows are molecules tested against T1, HLA A*0201 (Homo sapiens, UniProt P04439, D140Y/D185E/D98H/E176V/E277Q/G131W/G231S/I119V/I121R/I166T/I218V/L300P/L318F/N151K/N90K/P208A/P217A/Q86G/Q94H/R138H/R169H/T345S) (assay: biochemical). Conditions: not given.
T1 construct: Pure Protein, LLC (ran the assay)
Type: binding

Molecule	IC50
CC[C@H](C)[C@H](NC(=O)[C@H](CCCCN)NC(=O)[C@H](CCCCN)NC(=O)[C@H](CC(C)C)NC(=O)[C@H](Cc1ccc(O)cc1)NC(=O)[C@H](CCC(=O)O)NC(=O)[C@@H](NC(=O)[C@@H](NC(=O)[C@@H](N)Cc1c[nH]cn1)[C@@H](C)CC)[C@@H](C)O)C(=O)O [Cluster 315_ICS2] (H-HITEYLKKI-OH)	148 µM
CC[C@H](C)[C@H](NC(=O)[C@H](CCCCN)NC(=O)[C@H](CC(C)C)NC(=O)[C@@H](N)Cc1ccc(O)cc1)C(=O)N[C@H](C(=O)N[C@@H](CCC(N)=O)C(=O)N[C@@H](CC(N)=O)C(=O)N[C@@H](CO)C(=O)N[C@@H](CC(C)C)C(=O)O)[C@@H](C)CC [Cluster 319_ICS5] (H-YLKIIQNSL-OH)	4.88 µM
CC[C@H](C)[C@H](NC(=O)[C@H](CCCCN)NC(=O)[C@H](CCCCN)NC(=O)[C@H](CC(C)C)NC(=O)[C@@H](N)Cc1ccc(O)cc1)C(=O)N[C@@H](CCC(N)=O)C(=O)N[C@@H](Cc1ccc(O)cc1)C(=O)N[C@@H](CO)C(=O)N[C@@H](CC(C)C)C(=O)O [Cluster 319_ICS7] (H-YLKKIQYSL-OH)	2.58 µM

Same assay, conditions: allele A0201; cell-free competition with fluorescently labeled control peptide, fluorescence polarization at 72 hours; read-out: IC50

Molecule	IC50
CC(C)C[C@H](N)C(=O)N[C@@H](CO)C(=O)N[C@H](C(=O)N[C@@H](CCC(=O)O)C(=O)N[C@@H](Cc1c[nH]c2ccccc12)C(=O)N[C@@H](CO)C(=O)N1CCC[C@H]1C(=O)N[C@@H](CS)C(=O)N[C@@H](CO)C(=O)N[C@H](C(=O)O)C(C)C)[C@@H](C)O [327_3D7 (10)] (H-LSTEWSPCSV-OH)	4.38 µM
CC[C@H](C)[C@H](NC(=O)[C@H](CCCCN)NC(=O)[C@H](CC(N)=O)NC(=O)[C@H](CC(C)C)NC(=O)[C@H](Cc1ccc(O)cc1)NC(=O)[C@H](CCC(=O)O)NC(=O)[C@H](CCCCN)NC(=O)[C@@H](NC(=O)[C@@H](N)Cc1c[nH]cn1)[C@@H](C)CC)C(=O)O [Cluster 315_3D7] (H-HIKEYLNKI-OH)	259 µM

What follows are molecules tested against T2, HLA A*0101 (Homo sapiens, UniProt P04439, A114D/A174V/A182V/D101N/D185E/E176A/E190D/L180R/Q94H/R68K/S129P/T187R/V100A/V91M/W191G) (assay: biochemical). Conditions: allele A0101; cell-free competition with fluorescently labeled control peptide, fluorescence polarization at 72 hours.
T2 construct: Pure Protein, LLC (ran the assay)
Type: binding

Molecule	IC50 (nM)
CC[C@H](C)[C@H](N)C(=O)N[C@@H](CCC(=O)O)C(=O)N[C@@H](CCC(N)=O)C(=O)N[C@@H](Cc1ccc(O)cc1)C(=O)N[C@@H](CC(C)C)C(=O)N[C@@H](CCCCN)C(=O)N[C@@H](CCCCN)C(=O)N[C@H](C(=O)N[C@@H](CCC(N)=O)C(=O)N[C@@H](Cc1ccc(O)cc1)C(=O)O)[C@@H](C)CC [Cluster 316_ICS7] (H-IEQYLKKIQY-OH)	Non-Binder
CC[C@H](C)[C@H](NC(=O)[C@H](CC(=O)O)NC(=O)[C@H](CC(N)=O)NC(=O)[C@H](C)NC(=O)[C@H](Cc1ccc(O)cc1)NC(=O)[C@H](CC(=O)O)NC(=O)[C@H](CC(C)C)NC(=O)[C@@H](N)CCC(=O)O)C(=O)N[C@@H](CCC(=O)O)C(=O)N[C@@H](CCCCN)C(=O)O [Cluster 357_3D7] (H-ELDYANDIEK-OH)	Non-Binder
KMEKCSSVF [Cluster 370_3D7]	Non-Binder
NEEPSDKHIK [308_3D7 (10)]	Non-Binder
VTCGNGIQV [Cluster 336_3D7]	Non-Binder

Same assay, conditions: allele A0101; cell-free competition with fluorescently labeled control peptide, fluorescence polarization at 72 hours; read-out: IC50

Molecule	IC50
CC[C@H](C)[C@H](NC(=O)[C@H](CC(=O)O)NC(=O)[C@H](CC(N)=O)NC(=O)[C@H](CCC(=O)O)NC(=O)[C@H](Cc1ccc(O)cc1)NC(=O)[C@H](CC(=O)O)NC(=O)[C@H](CC(C)C)NC(=O)[C@@H](N)CCC(N)=O)C(=O)N[C@@H](CCC(=O)O)C(=O)N[C@@H](CCCCN)C(=O)O [Cluster 357_CVX89] (H-QLDYENDIEK-OH)	726 µM

The molecules below were run against T3, HLA B*0702 (Homo sapiens, UniProt P01889) (assay: biochemical). Conditions: allele B0702; cell-free competition with fluorescently labeled control peptide, fluorescence polarization at 72 hours.
T3 construct: Pure Protein, LLC (ran the assay)
Type: binding

Molecule	IC50 (nM)
KMEKCSSVF [Cluster 370_3D7]	Non-Binder
KPGSADKPKD [347_CVX69 (10)]	Non-Binder
KPGSANKPKD [Cluster 347_3D7]	Non-Binder
NPNANPNAN [131_3D7 (9)]	Non-Binder
NPNANPNANP [131_3D7 (10)]	Non-Binder
NPNVDPNANP [Cluster 107_3D7]	Non-Binder
SPCSVTCGNG [Cluster 332_3D7]	Non-Binder

Same assay, conditions: allele B0702; cell-free competition with fluorescently labeled control peptide, fluorescence polarization at 72 hours; read-out: IC50

Molecule	IC50
C[C@H](NC(=O)[C@H](CO)NC(=O)CNC(=O)[C@@H]1CCCN1C(=O)[C@@H](N)CCCCN)C(=O)NCC(=O)N[C@@H](CCCCN)C(=O)N[C@@H](CO)C(=O)N[C@@H](CCCCN)C(=O)O [347_CVX36 (9)] (H-KPGSAGKSK-OH)	53.1 µM
CSCC[C@H](N)C(=O)N1CCC[C@H]1C(=O)N[C@@H](CC(N)=O)C(=O)N[C@@H](CC(=O)O)C(=O)N1CCC[C@H]1C(=O)N[C@@H](CC(N)=O)C(=O)N[C@@H](CCCNC(=N)N)C(=O)N[C@@H](CC(N)=O)C(=O)N[C@H](C(=O)O)C(C)C [Cluster 285_3D7]	511 µM
CC[C@H](C)[C@H](NC(=O)[C@H](CCCNC(=N)N)NC(=O)[C@@H](NC(=O)[C@@H](N)CCC(N)=O)C(C)C)C(=O)N[C@@H](CCCCN)C(=O)N1CCC[C@H]1C(=O)NCC(=O)N[C@@H](CO)C(=O)N[C@@H](C)C(=O)O [Cluster 343_3D7] (H-QVRIKPGSA-OH)	134 µM

What follows are molecules tested against HLA B*4402 (Homo sapiens, UniProt P01889, A223V/A65T/A93T/A95T/D201E/D98Y/E176V/E187L/E204Q/E69K/G107R/H137Y/K202T/L105A/L119I/N104T/N87E/Q56L/Q94N/R106L/R155S/R180D/S101N/S121R/S35A/S48T/T118I/V36M/W191S/Y140D/Y91S) (assay: In vitro class I HLA binding competition assay (fluorescence polarization)). Conditions: allele B4402; cell-free competition with fluorescently labeled control peptide, fluorescence polarization at 72 hours.
Protocol: The cell-free class I HLA binding assay in use at Pure Protein, LLC allows for in vitro quantification of peptide-HLA binding affinity in a competition format. In this assay, a fluorescently labeled, high binding, control peptide is loaded onto 384-well ½-area plates along with unlabeled experimental peptides. To remove endogenous peptides and render the HLA A and B molecules receptive to binding, HLA is heated at 53°C for 15 minutes and immediately added to the assay. The mixture is then allowed to stand for three days. Once the mixture has reached steady equilibrium (at 72 hours), displacement of the high binding control peptide is measured through Fluorescence Polarization. Binding of experimental peptides is expressed as the percent inhibition of the labeled control peptide (experimental fluorescence / control fluorescence, multiplied by 100). The percent inhibition values for each experimental peptide (across a range of molar concentrations) are used to calculate the concentration which inhibits 50% of the labeled control peptide’s specific binding. This value is referred to as the peptide’s IC50.

Molecule	IC50 (nM)	IC50
CSCC[C@H](N)C(=O)N1CCC[C@H]1C(=O)N[C@@H](CC(N)=O)C(=O)N[C@@H](CC(=O)O)C(=O)N1CCC[C@H]1C(=O)N[C@@H](CC(N)=O)C(=O)N[C@@H](CCCNC(=N)N)C(=O)N[C@@H](CC(N)=O)C(=O)N[C@H](C(=O)O)C(C)C [Cluster 285_3D7]	Non-Binder	–
C[C@H](NC(=O)[C@H](CC(N)=O)NC(=O)[C@H](CC(N)=O)NC(=O)[C@H](C)NC(=O)[C@H](CC(N)=O)NC(=O)[C@H](C)NC(=O)[C@H](CC(N)=O)NC(=O)[C@H](CCC(=O)O)NC(=O)[C@@H](N)CC(=O)O)C(=O)O [Cluster 294_CVX311] (H-DENANANNA-OH)	–	896 µM
CC[C@H](C)[C@H](N)C(=O)N[C@@H](CCC(=O)O)C(=O)N[C@@H](CCC(N)=O)C(=O)N[C@@H](Cc1ccc(O)cc1)C(=O)N[C@@H](CC(C)C)C(=O)N[C@@H](CCCCN)C(=O)N[C@@H](CCCCN)C(=O)N[C@H](C(=O)N[C@@H](CCC(N)=O)C(=O)N[C@@H](Cc1ccc(O)cc1)C(=O)O)[C@@H](C)CC [Cluster 316_ICS7] (H-IEQYLKKIQY-OH)	–	157 µM
CC[C@H](C)[C@H](NC(=O)[C@H](CC(=O)O)NC(=O)[C@H](CC(N)=O)NC(=O)[C@H](C)NC(=O)[C@H](Cc1ccc(O)cc1)NC(=O)[C@H](CC(=O)O)NC(=O)[C@H](CC(C)C)NC(=O)[C@H](CCC(=O)O)NC(=O)[C@@H](N)CC(=O)O)C(=O)O [Cluster 356_3D7] (H-DELDYANDI-OH)	–	277 µM
CC[C@H](C)[C@H](NC(=O)[C@H](CCCCN)NC(=O)[C@H](CCCCN)NC(=O)[C@H](CCC(=O)O)NC(=O)[C@@H](NC(=O)[C@H](CC(=O)O)NC(=O)[C@H](CC(N)=O)NC(=O)[C@H](CCC(=O)O)NC(=O)[C@@H](N)Cc1ccc(O)cc1)[C@@H](C)CC)C(=O)O [Cluster 360_CVX298] (H-YENDIEKKI-OH)	–	7.36 µM
CSCC[C@H](N)C(=O)N[C@@H](CCC(=O)O)C(=O)N[C@@H](CCCCN)C(=O)N[C@@H](CS)C(=O)N[C@@H](CO)C(=O)N[C@@H](CO)C(=O)N[C@H](C(=O)N[C@@H](Cc1ccccc1)C(=O)N[C@@H](CC(N)=O)C(=O)O)C(C)C [Cluster 371_3D7] (H-MEKCSSVFN-OH)	–	143 µM
DENANANSA [Cluster 294_3D7]	Non-Binder	–
KDELDYENDI [Cluster 355_CVX124]	Non-Binder	–
KEYLNKIQNS [Cluster 317_3D7]	Non-Binder	–
NEEPSDKHI [308_3D7(9)]	Non-Binder	–
NEEPSDKHIK [308_3D7 (10)]	Non-Binder	–
NEEPSDQHI [Cluster 308_CVX99]	Non-Binder	–
TEWSPCSVT [Cluster 329_3D7]	Non-Binder	–
TEYLKKIQN [Cluster 317_ICS2]	Non-Binder	–

The molecules below were run against T4, HLA A*0301 (Homo sapiens, UniProt P04439) in the same assay as above. Conditions: not given.
T4 construct: Pure Protein, LLC (ran the assay)

Molecule	IC50
CC(C)C[C@H](NC(=O)[C@@H](N)CCCCN)C(=O)N[C@@H](CCCNC(=N)N)C(=O)N[C@@H](CCCCN)C(=O)N1CCC[C@H]1C(=O)N[C@@H](CCCCN)C(=O)N[C@@H](Cc1c[nH]cn1)C(=O)N[C@@H](CCCCN)C(=O)N[C@@H](CCCCN)C(=O)O [CL1-61]	3.06 µM
CC[C@H](C)[C@H](NC(=O)[C@@H](N)CCCNC(=N)N)C(=O)N[C@@H](CCCCN)C(=O)N1CCC[C@H]1C(=O)NCC(=O)N[C@@H](CO)C(=O)N[C@@H](C)C(=O)N[C@@H](CC(N)=O)C(=O)N[C@@H](CCCCN)C(=O)O [Cluster 345_3D7] (H-RIKPGSANK-OH)	21.3 µM
CC[C@H](C)[C@H](NC(=O)[C@@H](N)CCCNC(=N)N)C(=O)N[C@@H](CCCCN)C(=O)N1CCC[C@H]1C(=O)NCC(=O)N[C@@H](CO)C(=O)N[C@@H](C)C(=O)N[C@@H](CC(=O)O)C(=O)N[C@@H](CCCCN)C(=O)O [Cluster 345_CVX79] (H-RIKPGSADK-OH)	17.7 µM
CC[C@H](C)[C@H](NC(=O)[C@H](CC(=O)O)NC(=O)[C@H](CC(N)=O)NC(=O)[C@H](C)NC(=O)[C@H](Cc1ccc(O)cc1)NC(=O)[C@H](CC(=O)O)NC(=O)[C@H](CC(C)C)NC(=O)[C@@H](N)CCC(=O)O)C(=O)N[C@@H](CCC(=O)O)C(=O)N[C@@H](CCCCN)C(=O)O [Cluster 357_3D7] (H-ELDYANDIEK-OH)	556 µM

Same assay, conditions: allele A0301; cell-free competition with fluorescently labeled control peptide, fluorescence polarization at 72 hours

Molecule	IC50 (nM)
CC[C@H](C)[C@H](NC(=O)[C@H](CC(=O)O)NC(=O)[C@H](CC(N)=O)NC(=O)[C@H](CCC(=O)O)NC(=O)[C@H](Cc1ccc(O)cc1)NC(=O)[C@H](CC(=O)O)NC(=O)[C@H](CC(C)C)NC(=O)[C@@H](N)CCC(N)=O)C(=O)N[C@@H](CCC(=O)O)C(=O)N[C@@H](CCCCN)C(=O)O [Cluster 357_CVX89] (H-QLDYENDIEK-OH)	Non-Binder
IEKKICKMEK [Cluster 364_3D7]	Non-Binder
KHIKEYLNK [Cluster 314_3D7]	Non-Binder
LDYANDIEK [Cluster 358_3D7]	Non-Binder
NANPNANPNK [Cluster 265_3D7]	Non-Binder
QLDYANDIEK [Cluster 357_CVX111]	Non-Binder
VTCGNGIQV [Cluster 336_3D7]	Non-Binder
